Measurements taken from DBAASP.
≈ marks a conversion by molar mass, not a printed value.

Legend:
Assay in all cases: ≥ marks a high value that may be exact or a test limit, other limits are often not marked, values filed in µg/mL are converted to µM
[1] = system: Leuconostoc lactis
[2] = system: Staphylococcus epidermidis
[3] = system: Escherichia coli UB1005
[4] = system: Listeria innocua
[5] = system: Escherichia coli
[6] = system: Streptococcus uberis
[7] = system: Bacillus cereus
[8] = system: Pasteurella multocida
[9] = system: Micrococcus luteus
[10] = system: Bacillus cereus C737
[11] = system: Pseudomonas aeruginosa PAO1
[12] = system: Staphylococcus aureus
[13] = system: Salmonella typhimurium
[14] = system: Escherichia coli 55B5
[15] = system: Pseudomonas aeruginosa
[16] = system: Yersinia enterocolitica BCRC 13999
[17] = system: Vibrio anguillarum serotype O1
[18] = system: Klebsiella oxytoca BCRC 13985
[19] = system: Vibrio harveyi
[20] = system: Lactococcus garvieae
[21] = system: Staphylococcus xylosus BCRC 12930
[22] = system: Pseudomonas aeruginosa BCRC 10944
[23] = system: Streptococcus equinus BCRC 14729
[24] = system: Vibrio alginolyticus BCRC 12829
[25] = system: Vibrio alginolyticus
[26] = system: Vibrio parahaemolyticus
[27] = system: Staphylococcus aureus BCRC 10781
[28] = system: Staphylococcus aureus BCRC 10780
[29] = system: Enterobacter cloacae BCRC 10401
[30] = system: Streptococcus iniae
[31] = system: Escherichia coli BCRC 10675
[32] = system: Vibrio parahaemolyticus BCRC 10806
[33] = system: Klebsiella aerogenes BCRC 10370
[34] = system: Listeria monocytogenes BCRC 14845
[35] = system: Candida albicans IHEM 8060
[36] = system: Candida glabrata
[37] = system: Streptococcus gordonii Challis DL1
[38] = system: Lacticaseibacillus casei ATCC 4646
[39] = system: Veillonella atypica PK1910
[40] = system: Streptococcus sanguinis NY101
[41] = system: Streptococcus mutans UA159
[42] = system: Streptococcus mitis ATCC 903
[43] = system: Pseudomonas aeruginosa PAK

Q: For CC[C@H](C)[C@H](NC(=O)[C@H](CC(=O)O)NC(=O)[C@H](Cc1ccccc1)NC(=O)[C@H](CC(C)C)NC(=O)CN)C(=O)N[C@H](C(=O)N[C@@H](CCCCN)C(=O)N[C@@H](CCCCN)C(=O)N[C@H](C(=O)N[C@H](C(=O)NCC(=O)N[C@@H](C)C(=O)N[C@@H](CC(C)C)C(=O)NCC(=O)N[C@@H](CO)C(=O)N[C@@H](CC(C)C)C(N)=O)C(C)C)C(C)C)C(C)C [GLFDIVKKVVGALGSL], which MIC [1] is on record?
A: 7.43 µM (≈ 12 µg/mL)

Q: What about the MIC [2] of the same compound?
A: 15.5 µM (≈ 25 µg/mL)

Q: And the MIC [3]?
A: ≥ 39.6 µM

Q: And the MIC [4]?
A: 7.43 µM (≈ 12 µg/mL)

Q: What about the MIC [5] of the same compound?
A: > 61.9 µM

Q: What about the MIC [6] of the same compound?
A: ≥ 61.9 µM

Q: What about the MIC [7] of the same compound?
A: ≥ 61.9 µM

Q: What about the MIC [8] of the same compound?
A: ≥ 61.9 µM

Q: What about the MIC [9] of the same compound?
A: 15.5 µM (≈ 25 µg/mL)

Q: And the MIC [10]?
A: ≥ 79.2 µM

Q: And the MIC [11]?
A: > 79.2 µM

Q: What about the MIC [12] of the same compound?
A: 15.5 µM (≈ 25 µg/mL)

Q: What does the source list for CC[C@H](C)[C@H](NC(=O)[C@H](C)N)C(=O)N[C@@H](Cc1cnc[nH]1)C(=O)N[C@@H](CCCCN)C(=O)N[C@@H](CC(C)C)C(=O)N[C@@H](C)C(=O)N[C@@H](Cc1cnc[nH]1)C(=O)N[C@@H](CCCCN)C(=O)N[C@@H](CC(C)C)C(=O)N[C@@H](CC(C)C)C(=O)N[C@@H](CCCCN)C(=O)N[C@@H](CCCCN)C(=O)N[C@@H](CC(C)C)C(=O)N[C@@H](CC(C)C)C(=O)N[C@@H](CCCCN)C(=O)N[C@@H](C)C(=O)N[C@H](C(=O)N[C@@H](CCCCN)C(=O)N[C@@H](CCCCN)C(=O)N[C@@H](CC(C)C)C(=O)N[C@@H](C)C(=O)N[C@@H](CCCCN)C(=O)O)C(C)C [AIHKLAHKLLKKLLKAVKKLAK]?
A: MIC [13]: 6 µM (≈ 15 µg/mL); MIC [3]: 2.5 µM (≈ 6.23 µg/mL); MIC [14]: 2 µM (≈ 4.99 µg/mL); MIC [15]: 4.5 µM (≈ 11.2 µg/mL); MIC [12]: 25 µM (≈ 62.3 µg/mL)

Q: Which results are given for CC[C@H](C)[C@H](NC(=O)[C@H](Cc1ccccc1)NC(=O)[C@H](CCCCN)NC(=O)[C@H](CCCCN)NC(=O)[C@H](C)NC(=O)[C@@H](NC(=O)[C@@H](NC(=O)[C@H](C)NC(=O)[C@H](Cc1ccccc1)NC(=O)[C@H](CCCCN)NC(=O)[C@H](CCCCN)NC(=O)[C@H](C)NC(=O)[C@H](C)NC(=O)[C@H](CC(N)=O)NC(=O)[C@H](C)NC(=O)CN)[C@@H](C)O)[C@@H](C)CC)C(=O)N[C@@H](CC(N)=O)C(=O)N[C@@H](Cc1ccc(O)cc1)C(=O)N[C@@H](CC(C)C)C(=O)N[C@@H](Cc1c[nH]c2ccccc12)C(=O)O [GANAAKKFATIAKKFINYLW]?
A: MIC [16]: 28.4 µM (≈ 64 µg/mL); MIC [17]: 3.55 µM (≈ 8 µg/mL); MIC [18]: 14.2 µM (≈ 32 µg/mL); MIC [19]: 3.55 µM (≈ 8 µg/mL); MIC [20]: ≥ 56.7 µM; MIC [21]: 3.55 µM (≈ 8 µg/mL); MIC [5]: 14.2 µM (≈ 32 µg/mL); MIC [22]: 7.09 µM (≈ 16 µg/mL); MIC [23]: ≥ 56.7 µM; MIC [24]: 28.4 µM (≈ 64 µg/mL); MIC [25]: 3.55 µM (≈ 8 µg/mL); MIC [26]: 1.77 µM (≈ 4 µg/mL); MIC [27]: 7.09 µM (≈ 16 µg/mL); MIC [28]: 7.09 µM (≈ 16 µg/mL); MIC [29]: 3.55 µM (≈ 8 µg/mL); MIC [30]: ≥ 56.7 µM; MIC [31]: 7.09 µM (≈ 16 µg/mL); MIC [32]: 28.4 µM (≈ 64 µg/mL); MIC [33]: 3.55 µM (≈ 8 µg/mL); MIC [34]: 3.55 µM (≈ 8 µg/mL)

Q: Which MIC [35] does the source give for CC[C@H](C)[C@@H]1NC(=O)[C@@H](N)CSSC[C@@H]2NC(=O)[C@@H]3CSSC[C@@H](C(=O)N[C@@H](CCCN=C(N)N)C(=O)O)NC(=O)[C@H](Cc4ccc(O)cc4)NC(=O)CNC(=O)[C@H](C)NC(=O)[C@H](C(C)C)NC(=O)[C@H](Cc4c[nH]c5ccccc45)NC(=O)CNC(=O)[C@@H]4CCCN4C(=O)[C@H](CCC(=O)O)NC(=O)[C@H](CCCCN)NC(=O)[C@H](Cc4cnc[nH]4)NC(=O)[C@H](CSSC[C@H](NC(=O)CNC(=O)[C@H](CC(N)=O)NC(=O)[C@H](CCCN=C(N)N)NC(=O)[C@H](CC(N)=O)NC(=O)[C@H](C)NC1=O)C(=O)N[C@@H](CCC(N)=O)C(=O)N1CCC[C@H]1C(=O)N[C@@H](CC(=O)O)C(=O)NCC(=O)N[C@@H](CO)C(=O)N[C@@H](CCC(N)=O)C(=O)NCC(=O)N[C@@H](CC(N)=O)C(=O)N3)NC(=O)[C@H](Cc1ccc(O)cc1)NC(=O)CNC(=O)[C@H](CO)NC2=O [CIANRNGCQPDGSQGNCCSGYCHKEPGWVAGYCR] here?
A: 17.6 µM (≈ 63.9 µg/mL)

Q: What about the MIC [36] of the same compound?
A: 17.6 µM (≈ 63.9 µg/mL)

Q: Which MIC [3] does the source give for CC[C@H](C)[C@H](NC(=O)[C@H](C)NC(=O)CNC(=O)[C@@H](NC(=O)[C@@H](NC(=O)[C@H](CCCCN)NC(=O)[C@H](CCCCN)NC(=O)[C@@H](NC(=O)[C@@H](NC(=O)[C@H](CC(=O)O)NC(=O)[C@H](Cc1ccccc1)NC(=O)[C@H](CC(C)C)NC(=O)CN)[C@@H](C)CC)C(C)C)C(C)C)C(C)C)C(=O)NCC(=O)N[C@@H](CO)C(=O)N[C@@H](CC(C)C)C(=O)O [GLFDIVKKVVGAIGSL] here?
A: ≥ 79.2 µM

Q: And the MIC [10]?
A: ≥ 79.2 µM

Q: What about the MIC [11] of the same compound?
A: > 79.2 µM

Q: With CC(C)C[C@H](NC(=O)[C@H](CC(C)C)NC(=O)[C@H](Cc1cnc[nH]1)NC(=O)[C@H](Cc1cnc[nH]1)NC(=O)[C@H](CC(C)C)NC(=O)[C@H](CCCCN)NC(=O)[C@H](CCCCN)NC(=O)[C@H](CC(C)C)NC(=O)[C@H](CC(C)C)NC(=O)[C@H](CCCN=C(N)N)NC(=O)[C@H](CCCN=C(N)N)NC(=O)[C@H](Cc1c[nH]c2ccccc12)NC(=O)[C@@H](N)CCCN=C(N)N)C(=O)N[C@@H](Cc1cnc[nH]1)C(N)=O [RWRRLLKKLHHLLH] as the compound, how does the MIC [37] read?
A: 8.39 µM (≈ 16 µg/mL)

Q: And the MIC [38]?
A: 8.39 µM (≈ 16 µg/mL)

Q: What about the MIC [39] of the same compound?
A: 2.1 µM (≈ 4 µg/mL)

Q: What about the MIC [40] of the same compound?
A: 8.39 µM (≈ 16 µg/mL)

Q: What about the MIC [41] of the same compound?
A: 4.2 µM (≈ 8 µg/mL)

Q: What about the MIC [42] of the same compound?
A: 16.8 µM (≈ 32 µg/mL)

Q: And the MIC [43]?
A: 4.2 µM (≈ 8 µg/mL)

Q: And the MIC [12]?
A: 8.39 µM (≈ 16 µg/mL)

Q: For CC[C@H](C)[C@H](NC(=O)[C@H](Cc1ccccc1)NC(=O)CNC(=O)CNC(=O)[C@H](CO)NC(=O)[C@H](Cc1ccccc1)NC(=O)[C@H](CCC(N)=O)NC(=O)[C@H](CCCCN)NC(=O)[C@H](CC(C)C)NC(=O)[C@H](CC(C)C)NC(=O)[C@H](CCCCN)NC(=O)[C@H](CC(C)C)NC(=O)[C@H](CC(C)C)NC(=O)[C@H](CCC(N)=O)NC(=O)[C@H](CCCCN)NC(=O)[C@H](CC(C)C)NC(=O)[C@H](CC(C)C)NC(=O)[C@H](CCC(N)=O)NC(=O)[C@@H](N)CC(C)C)C(=O)N[C@@H](CCCCN)C(=O)N[C@@H](Cc1cnc[nH]1)C(=O)N[C@@H](Cc1ccccc1)C(=O)N[C@H](C(=O)N[C@@H](Cc1cnc[nH]1)C(=O)N[C@@H](CCCN=C(N)N)C(=O)N[C@@H](Cc1ccccc1)C(N)=O)[C@@H](C)CC [LQLLKQLLKLLKQFSGGFIKHFIHRF], which MIC [37] is on record?
A: 5.07 µM (≈ 16 µg/mL)

Q: What about the MIC [40] of the same compound?
A: 5.07 µM (≈ 16 µg/mL)

Q: What about the MIC [41] of the same compound?
A: 2.54 µM (≈ 8 µg/mL)

Q: And the MIC [42]?
A: 10.1 µM (≈ 32 µg/mL)

Q: And the MIC [43]?
A: 10.1 µM (≈ 32 µg/mL)

Q: What about the MIC [12] of the same compound?
A: 10.1 µM (≈ 32 µg/mL)
